Legend:
[1] = target: T1, HDAC11 (Homo sapiens, UniProt Q96DB2); test: HDAC isoform selectivity assay, HDAC11; assay type: biochemical
T1 sequence (Q96DB2 1-347): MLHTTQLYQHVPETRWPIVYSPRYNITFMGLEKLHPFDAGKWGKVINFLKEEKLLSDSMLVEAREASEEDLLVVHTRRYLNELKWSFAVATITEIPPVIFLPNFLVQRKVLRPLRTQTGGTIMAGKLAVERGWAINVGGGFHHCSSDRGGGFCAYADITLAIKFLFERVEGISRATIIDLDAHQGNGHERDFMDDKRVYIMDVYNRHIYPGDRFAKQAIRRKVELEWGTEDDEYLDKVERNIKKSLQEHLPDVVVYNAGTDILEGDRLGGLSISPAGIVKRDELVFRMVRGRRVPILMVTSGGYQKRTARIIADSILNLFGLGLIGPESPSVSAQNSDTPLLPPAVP

[2] = target: HDAC1 (Homo sapiens, UniProt Q13547); test: HDAC isoform selectivity assay, HDAC1; assay type: biochemical
HDAC1, sequence (Q13547 whole entry, species assumed, canonical isoform): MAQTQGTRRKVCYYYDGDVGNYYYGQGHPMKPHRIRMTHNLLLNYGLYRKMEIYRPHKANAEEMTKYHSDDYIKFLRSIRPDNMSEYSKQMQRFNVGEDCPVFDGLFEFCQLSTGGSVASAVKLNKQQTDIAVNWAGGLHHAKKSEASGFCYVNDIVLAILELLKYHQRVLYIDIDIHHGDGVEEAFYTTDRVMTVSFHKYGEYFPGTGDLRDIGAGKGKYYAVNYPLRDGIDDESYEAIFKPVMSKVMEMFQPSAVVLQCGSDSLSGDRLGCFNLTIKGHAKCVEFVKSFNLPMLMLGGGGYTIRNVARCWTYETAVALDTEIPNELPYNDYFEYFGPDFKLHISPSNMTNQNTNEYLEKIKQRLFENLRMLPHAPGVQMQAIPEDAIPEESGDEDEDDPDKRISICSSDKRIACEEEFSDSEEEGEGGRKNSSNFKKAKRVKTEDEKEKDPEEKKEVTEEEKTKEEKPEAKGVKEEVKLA

[3] = target: T2, HDAC6 human recombinant enzyme (Homo sapiens, UniProt Q9UBN7); test: HDAC6 enzyme inhibitory activity assay; assay type: biochemical; conditions: for inhibition at 1 µM: read-out: HDAC6 Inhibition Rate at 1 μM
T2 sequence (Q9UBN7 1-1215): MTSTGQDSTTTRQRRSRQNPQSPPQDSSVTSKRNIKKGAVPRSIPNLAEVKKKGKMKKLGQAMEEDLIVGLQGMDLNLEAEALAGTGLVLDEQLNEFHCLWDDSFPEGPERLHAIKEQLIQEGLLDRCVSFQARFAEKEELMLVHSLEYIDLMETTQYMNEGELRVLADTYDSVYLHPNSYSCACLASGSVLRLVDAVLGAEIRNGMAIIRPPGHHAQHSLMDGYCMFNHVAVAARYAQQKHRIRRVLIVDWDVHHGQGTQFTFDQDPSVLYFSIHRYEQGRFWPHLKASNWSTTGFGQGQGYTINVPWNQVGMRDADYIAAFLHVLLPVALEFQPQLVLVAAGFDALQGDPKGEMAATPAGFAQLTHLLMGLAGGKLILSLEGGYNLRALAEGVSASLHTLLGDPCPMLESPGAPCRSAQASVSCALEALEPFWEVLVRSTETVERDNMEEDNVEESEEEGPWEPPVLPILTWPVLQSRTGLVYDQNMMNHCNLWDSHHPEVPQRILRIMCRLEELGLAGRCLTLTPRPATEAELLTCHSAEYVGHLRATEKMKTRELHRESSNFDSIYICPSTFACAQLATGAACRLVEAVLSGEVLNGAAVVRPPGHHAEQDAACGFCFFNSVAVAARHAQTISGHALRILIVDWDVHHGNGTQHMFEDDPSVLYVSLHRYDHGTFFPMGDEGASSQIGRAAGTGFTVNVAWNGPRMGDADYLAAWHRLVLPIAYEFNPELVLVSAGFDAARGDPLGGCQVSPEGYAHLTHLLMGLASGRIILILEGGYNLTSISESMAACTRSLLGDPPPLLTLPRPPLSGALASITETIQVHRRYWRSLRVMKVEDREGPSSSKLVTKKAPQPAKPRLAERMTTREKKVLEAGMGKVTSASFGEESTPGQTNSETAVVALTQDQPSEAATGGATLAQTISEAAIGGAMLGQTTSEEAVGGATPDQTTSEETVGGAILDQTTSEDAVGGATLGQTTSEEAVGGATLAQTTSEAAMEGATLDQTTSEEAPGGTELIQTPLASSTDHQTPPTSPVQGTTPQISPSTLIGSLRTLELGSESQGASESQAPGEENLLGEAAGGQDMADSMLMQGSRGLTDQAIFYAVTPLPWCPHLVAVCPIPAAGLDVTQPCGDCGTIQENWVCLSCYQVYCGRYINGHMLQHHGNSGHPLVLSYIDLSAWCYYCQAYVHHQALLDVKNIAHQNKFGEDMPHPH
Experimental: Section S1. Biological assays
Section S 1.1. HDAC6 enzyme inhibitory activity assay
Preparation of Master Mix. Trichostatin A in DMSO, Fluorogenic HDAC substrate 3, and HDAC6 human recombinant enzyme were diluted to 20 μM, 200 μM, and 7 ng/uL, respectively, using HDAC Assay Buffer.BSA was dissolved in 1 mL of distilled water to make a BSA solution at a concentration of 1 mg/mL. A certain amount of Fluorogenic HDAC substrate 3, BSA and HDAC Assay Buffer were mixed well to make a master mix, and 40 μL of the master mix was added to each well of a 96-well plate. In the drug administration group, 5 μL of Trichostatin A in DMSO and HDAC6 human recombinant enzyme were added to each well. 5 μL of HDAC Assay Buffer and HDAC6 human recombinant enzyme were added to each well of the blank group, and incubated for 30 min at 37 °C. Finally, 50 μL of undiluted HDAC substrate 3, BSA and HDAC Assay Buffer were added to each well. 50 μL of 2x HDAC Developer was added to each well and incubated at room temperature for 15 min. The samples were read in an enzyme marker with an excitation wavelength in the range of 350-380 nm and an emission light in the range of 440-460 nm.
The values of fluorescence intensities were read and the inhibition rate and IC50 were calculated. […]

[4] = test system: MCF-7 cells; test: Cell viability (MTT) assay, MCF-7; conditions: Homo sapiens, MCF7, 48 h, read-out: Antiproliferative IC50, MCF-7
Experimental: Section S 1.3 Cell viability assays
(§1) Cell Bank at the Chinese Academy of Sciences.
(§2) DMEM and FBS were obtained from Gibco-Thermo (BRL Co. Ltd., USA).
(§3) another 48 h. The cells were stained with 10 μl of MTT at incubator for approximately 4 h. The medium was discarded and replaced by 100 mL DMSO. The O.D. value was read at 570/630 nm with a spectrophotometer.

[5] = test system: MDA-MB-231 cells; test: Cell viability (MTT) assay, MDA-MB-231; conditions: Homo sapiens, MDA-MB-231, 48 h, read-out: Antiproliferative IC50, MDA-MB-231
Experimental: Section S 1.3 Cell viability assays
as §1, §2, §3

[6] = target: HDAC4 (Homo sapiens, UniProt P56524); test: HDAC isoform selectivity assay, HDAC4; assay type: biochemical; conditions: read-out: HDAC4 % inhibition rate at 10 μM
HDAC4, sequence (P56524 whole entry, species assumed, canonical isoform): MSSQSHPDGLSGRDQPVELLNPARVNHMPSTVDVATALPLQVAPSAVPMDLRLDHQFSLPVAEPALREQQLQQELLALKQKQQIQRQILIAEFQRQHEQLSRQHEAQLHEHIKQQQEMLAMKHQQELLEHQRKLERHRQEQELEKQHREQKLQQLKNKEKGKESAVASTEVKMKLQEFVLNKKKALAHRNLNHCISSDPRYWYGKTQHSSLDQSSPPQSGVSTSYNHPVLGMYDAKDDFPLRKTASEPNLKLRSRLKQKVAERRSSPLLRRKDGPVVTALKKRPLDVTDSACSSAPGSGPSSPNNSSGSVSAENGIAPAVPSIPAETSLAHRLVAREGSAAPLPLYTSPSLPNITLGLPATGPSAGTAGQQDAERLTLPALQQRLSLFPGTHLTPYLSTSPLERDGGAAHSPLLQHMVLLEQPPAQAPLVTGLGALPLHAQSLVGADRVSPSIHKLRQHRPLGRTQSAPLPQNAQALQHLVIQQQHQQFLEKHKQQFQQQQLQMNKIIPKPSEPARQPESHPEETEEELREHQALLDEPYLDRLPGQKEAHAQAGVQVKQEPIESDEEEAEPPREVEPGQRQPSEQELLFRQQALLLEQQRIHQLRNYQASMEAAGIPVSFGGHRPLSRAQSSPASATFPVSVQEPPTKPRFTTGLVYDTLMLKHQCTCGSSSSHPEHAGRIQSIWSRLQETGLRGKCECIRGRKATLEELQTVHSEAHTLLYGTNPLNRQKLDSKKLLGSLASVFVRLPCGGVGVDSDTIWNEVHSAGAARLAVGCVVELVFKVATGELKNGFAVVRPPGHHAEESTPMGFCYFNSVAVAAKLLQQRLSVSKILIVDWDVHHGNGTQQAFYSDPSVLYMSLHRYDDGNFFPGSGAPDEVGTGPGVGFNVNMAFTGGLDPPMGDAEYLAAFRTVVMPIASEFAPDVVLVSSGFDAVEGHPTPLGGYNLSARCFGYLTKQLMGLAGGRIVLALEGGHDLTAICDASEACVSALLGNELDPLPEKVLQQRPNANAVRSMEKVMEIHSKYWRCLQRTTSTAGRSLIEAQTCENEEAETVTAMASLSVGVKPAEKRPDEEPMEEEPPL

[7] = test system: SW480 cells; test: Cell viability (MTT) assay, SW480; conditions: Homo sapiens, SW480, 48 h, read-out: Antiproliferative IC50, SW480
Experimental: Section S 1.3 Cell viability assays
as §1, §2, §3

[8] = test system: HCT-116 cells; test: Cell viability (MTT) assay, HCT-116; conditions: Homo sapiens, HCT-116, 48 h, read-out: Antiproliferative IC50, HCT-116
Experimental: Section S 1.3 Cell viability assays
as §1, §2, §3

[9] = target: T3, rhIDO1 (Homo sapiens, UniProt P14902); test: IDO1 inhibition assay; assay type: biochemical; conditions: means ± S.D. of three independent experiments
T3 construct: purchased
T3 sequence (P14902 whole entry): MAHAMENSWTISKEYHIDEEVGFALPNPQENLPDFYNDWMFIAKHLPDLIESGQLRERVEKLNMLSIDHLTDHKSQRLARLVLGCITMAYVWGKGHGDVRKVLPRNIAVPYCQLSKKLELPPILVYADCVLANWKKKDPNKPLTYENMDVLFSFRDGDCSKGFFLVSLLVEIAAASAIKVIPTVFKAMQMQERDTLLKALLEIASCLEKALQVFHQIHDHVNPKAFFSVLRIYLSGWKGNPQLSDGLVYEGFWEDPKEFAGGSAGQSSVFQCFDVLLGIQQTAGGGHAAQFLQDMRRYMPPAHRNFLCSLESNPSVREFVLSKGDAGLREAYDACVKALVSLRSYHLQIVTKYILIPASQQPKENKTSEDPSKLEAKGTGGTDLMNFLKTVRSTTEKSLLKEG
Experimental: Section S1. Biological assays […]
Section S 1.2 IDO1 inhibition assays
IDO1 inhibition assays were carried out according to the manufacturers’ procedures, as described previously. The standard assay mixture (100 μL) contained 50 mM of potassium phosphate buffer (pH = 6.5), 10 mM ascorbate, 10 μM methylene blue, 100 μg/mL catalase, 1 mM L-tryptophan and 10 μg/mL of rhIDO1. The plate was incubated at 37 °C in a dark environment, and reactions were terminated after 60 min by the addition of 50 μL of fluorogenic developer solution and further incubated at 45 °C in dark for 3 h. Then, the plate was allowed to cool to room temperature for at least 1 h. After centrifugation at 1500g for 5 min at 20 °C, the fluorescence […]
M1000 Pro, Tecan US, Morrisville, NC) in an end-point mode. […]

[10] = General toxicity in CT26 tumor-bearing BALB/c mice (body weight, H&E of organs); assay type: in vivo; conditions: 150 mg/kg ip every 3 days for 21 days, versus vehicle group
Experimental: After that, fixed cells were washed with PBS. Then, cells were isolated by centrifugation and stained with propidium iodide (KeyGEN BioTECH, China) for 30 min. The samples were measured using flow cytometry and analyzed by Flowjo software.
Section S 1.6 Western blot assay […]
earlier were obtained by lysing the cells in ice-cold RIPA buffer with protease and phosphatase inhibitor and stored at -20°C for future use. The protein concentrations were quantified by the Bradford method (Bio-Rad) using a Multimode Varioscan instrument (Thermo Fischer Scientific). […]
and transferred to a polyvinylidene difluoride (PVDF) membrane (Amersham Biosciences). After the membrane was blocked at room temperature for 2 h in blocking solution, primary antibody was added and incubated at 4°C overnight. Ac-α-tubulin, Ac-histone H3 and GAPDH antibodies were purchased from Imgenex, USA. After three TBST washes, the membrane was incubated with corresponding horseradish peroxidase-labeled secondary antibody (1:2,000) (Santa Cruz) at room temperature for 1 h. Membranes were washed with TBST three times for 15 min and the protein bands were detected with chemiluminescence reagent (Thermo Fischer Scientific). The X-ray films were developed using developer and fixed with fixer solution.
Section S 1.7 In vivo antitumor efficacy […]
line CT-26 in BALB/c mice as described previously. Five-week-old male BALB/c mice were purchased from the Shanghai Ling Chang biotechnology company (China), and tumors were induced through subcutaneous injection of 1 × 10^7 cells in 100 µL of sterile PBS into the dorsal region. The animals were divided into four groups, starting on the second day. When the tumors reached a volume of 50−100 mm3 in all mice, the first group was administered intraperitoneally with an equivalent volume of 5% dextrose as the vehicle control. The second group was treated with […]
treated with complex 10e at doses of 150 mg/kg body weight once every 3 days for 3 weeks, respectively. All compounds were dissolved in vehicle. Tumor volumes and body weights were […]

[11] = design: method as in PMID 32815366; conditions: cell line not given; cited from earlier work
[12] = Cell viability assay, HK2 normal renal cells; conditions: human
Source text: On the basis of the IDO1 and HDAC activities, we explored the proliferation inhibitory activities of the selected compounds against four solid tumor cells lines.

Compound | IC50 [1] [µM] | IC50 [2] [µM] | IC50 [3] [µM] | Selectivity Index (SI) = HDAC1 IC50 value/HDAC6 IC50 value [3] | inhibition at 1 µM [3] [%] | IC50 [4] [µM] | IC50 [5] [µM] | inhibition at 10 µM [6] [%] | IC50 [7] [µM] | IC50 [8] [µM] | IC50 [9] [µM] | inhibition at 10 µM ([1]; read-out: HDAC11 % inhibition rate at 10 μM) [%] | influence on body weight of the mice [10] | concentration at which cytotoxicity begins [11] [µM] | IC50 [12] [µM]
O=C(CCCCCCC(=O)Nc1ccccc1)NO [SAHA, reference compound] |  |  |  |  | 91.7 |  |  |  |  |  |  |  | no obvious influence |  | 
NCc1ccc(NC(=O)N(CCCCO)Cc2ccc(C(=O)NO)cc2)cc1 [Suprastat] |  |  |  |  |  |  |  |  |  |  |  |  |  | > 25 | 
CCCCN(Cc1ccc(C(=O)NO)cc1)C(=O)Nc1ccccc1 [NextA] |  |  |  |  |  |  |  |  |  |  |  |  |  | 10 | 
Cc1ccc(-c2csc3ncc(C(=O)Nc4ccc(NCCCCCCC(=O)NO)cc4)n23)cc1 [Compound 10k, N-{4-[(7-(hydroxyamino)-7-oxoheptyl)amino]phenyl}-3-(p-tolyl)imidazo[2,1-b]thiazole-5-carboxamide] |  | 1.19 | 0.391 | 3.04 | 70.7 | > 80 | > 80 | 9.68 | > 80 | > 80 | 0.16 ± 0.03 | 29.8 |  |  | 

Continued, in another order:

IC50 [1] [µM] | IC50 [2] [µM] | IC50 [3] [µM] | Selectivity Index (SI) = HDAC1 IC50 value/HDAC6 IC50 value [3] | inhibition at 1 µM [3] [%] | IC50 [4] [µM] | IC50 [5] [µM] | inhibition at 10 µM [6] [%] | IC50 [7] [µM] | IC50 [8] [µM] | IC50 [9] [µM] | inhibition at 10 µM ([1]; read-out: HDAC11 % inhibition rate at 10 μM) [%] | Compound | influence on body weight of the mice [10] | concentration at which cytotoxicity begins [11] [µM] | IC50 [12] [µM]
6.06 | 2.45 | 0.0844 | 29.00 | 85.6 | > 80 | > 80 | 31.5 | > 80 | > 80 | 0.53 ± 0.11 |  | O=C(NO)c1ccc(CNC(=O)c2cnc3scc(-c4ccc(Br)cc4)n23)cc1 [Compound 7a, 3-(4-Bromophenyl)-N-[4-(hydroxycarbamoyl)benzyl]imidazo[2,1-b]thiazole-5-carboxamide] |  |  | 
 |  |  |  |  | > 80 | > 80 |  | > 80 | > 80 | 6.52 ± 0.45 |  | O=C(O)c1cnc2scc(-c3ccc(Br)cc3)n12 [5a] |  |  | > 80
